Laboratory results reported in patent publication US10509036B2, “Methods of selecting and isolating cancer stem cells” (The Regents of the University of California, priority 2014, dated 2019).

Tested on: neuroblastoma cells (low NBDG and high NBDG)
Assay: MTS assay (CellTiter 96 AQueous cell proliferation assay), low NBDG versus high NBDG neuroblastoma cells
Type: cell-based, human

**Q.** COc1cccc2c1C(=O)c1c(O)c3c(c(O)c1C2=O)C[C@@](O)(C(=O)CO)C[C@@H]3O[C@H]1C[C@H](N)[C@H](O)[C@H](C)O1 [doxorubicin] was tested. Which “resistance of low NBDG cells to the chemotherapy drug compared with high NBDG cells (MTS assay)” value did it give?
**A.** The value was “more resistant”.

**Q.** For CC[C@]1(O)C[C@H]2CN(CCc3c([nH]c4ccccc34)[C@@](C(=O)OC)(c3cc4c(cc3OC)N(C=O)[C@H]3[C@@](O)(C(=O)OC)[C@H](OC(C)=O)[C@]5(CC)C=CCN6CC[C@]43[C@@H]65)C2)C1 [vincristine], which “resistance of low NBDG cells to the chemotherapy drug compared with high NBDG cells (MTS assay)” value is on record?
**A.** The value was “more resistant”.
